US20250282827A1, “LIPIDATED POLYMYXIN ANALOGUES” (priority 2021, published 2025)
Values after ≈ are worked out from the molar mass of the structure shown. Where two headings read alike, the source gives them in different places. Positions of bridges follow the written chain, without caps; N, C: chain ends. Non-standard residues stand in square brackets, D forms with d. Residues, ends and D or L forms follow the SMILES beside them. *: point of attachment. Ethyl(2-propionyloxy) = CCC(=O)OCC*; Ethyl(2-OBz) = O=C(OCC*)c1ccccc1; Dab = NCC[C@H](N)C(=O)O; X3 = CCCC(C)C(=O)OCC*

Tests used:
[1] = system: carbapenem-resistant Pseudomonas aeruginosa (CRPA); format: cell-based; conditions: carbapenem-resistant (CRPA)
Source text: (§1) Given the promising antimicrobial activity and low toxicity associated with compounds 29, 35 and to a lesser extent 38, these compounds were progressed to a further round of phenotypic antimicrobial susceptibility testing using a panel of clinically relevant multidrug resistant Gram-negative pathogens. This panel included isolates phenotypically characterised as carbapenem-resistant Enterobacteriacea (CRE), extended spectrum β-lactamase (ESBL) producing Enterobacteriacea, colistin-resistant E. coli, carbapenem-resistant Acinetobacter baumannii (CRAB) or carbapenem-resistant Pseudomonas aeruginosa (CRPA). These isolates were chosen because each was resistant to multiple different families of clinically used antibiotics making treatment options limited and importantly, each of these pathogen types are recognised as “Priority 1: CRITICAL” on the World Health Organization (WHO) priority pathogen list for R&D of new antibiotics. Antimicrobial activity against any of these pathogens would therefore be of clinical importance. […] However, we note that many of the compounds tested in Example 4 did show good activity against colistin-resistant E. coli.

[2] = system: carbapenem-resistant Enterobacteriacea (CRE); format: cell-based
Source text: as §1

[3] = system: carbapenem-resistant Acinetobacter baumannii (CRAB); format: cell-based; conditions: carbapenem-resistant (CRAB)
Source text: as §1

[4] = system: colistin-resistant E. coli; format: cell-based, Escherichia coli; conditions: colistin-resistant
Source text: as §1

[5] = system: K. pneumoniae ATCC 33495; format: cell-based, Klebsiella pneumoniae
Source text: (§2) All 81 compounds prepared in Examples 2 and 3 underwent screening against a panel of Gram-negative bacterium to assess their ability to inhibit bacterial growth. […] The median value is presented.

[6] = system: K. pneumoniae ATCC MS6671; format: cell-based, Klebsiella pneumoniae
Source text: as §2

[7] = system: K. pneumoniae ATCC 700603; format: cell-based, Klebsiella pneumoniae
Source text: as §2

[8] = system: P. aeruginosa ATCC 27853; format: cell-based, Pseudomonas aeruginosa
Source text: as §2

[9] = system: E. coli ATCC 25922; format: cell-based, Escherichia coli
Source text: as §2

[10] = system: E. coli ATCC MS8345; format: cell-based, Escherichia coli
Source text: as §2
Expansion of the polymyxin macrocycle by substituting […]) offered little advantage in antimicrobial activity but was generally well tolerated although for A. baumanni and P. aeruginosa this was detrimental.

[11] = system: A. baumannii ATCC 19606; format: cell-based, Acinetobacter baumannii
Source text: as §2

[12] = system: kidney organoids derived from human induced pluripotent stem cells; assay: Nephrotoxicity on kidney organoids, renal tubule deterioration by bright field imaging; format: cell-based; conditions: scored after 48 h; note: key: 1 = unaffected; 2 = mild deterioration; 3 = severe deterioration; 4 = complete deterioration
Procedure: Selected polymyxin analogues were evaluated for cytotoxicity in physiologically relevant human kidney tissue, using kidney organoids derived from human induced pluripotent stem cells (Soo et al. 2018). Monolipidated analogues 29, 31, 33, containing a propyl, decyl or phenyl lipid, dilapidated compounds, 35, 38, 39, containing a propyl, tert-butyl or phenyl, lipid, respectively and the N-capped, di-lipidated (phenyl) 49 were selected.
The control compound polymyxin B and the seven ClipPA analogues were tested by adding a range of concentrations (based on Gallado-Godoy et al. 2016) to the organoids at day 12 of the protocol, shown previously to correspond to optimal maturity of the organoid tissues.
Toxicity was scored after 48 h for signs of renal tubule deterioration visible by bright field imaging (not shown).

[13] = system: Vero cell line; assay: Cellular toxicity against Vero cell line; format: cell-based; conditions: Vero cell line; for IC50 Vero: ± standard error
Procedure: (§3) FIG. 6 is a graph showing cell survival as a function of the indicated compound concentration. Data are representative of triplicate experiments.
(§4) To evaluate if the ClipPA modifications introduced any new toxicity, inhibitory concentrations against Vero and HaCaT cell lines were determined. […] The standard error for each measurement is shown.

[14] = system: HaCaT cell line; assay: Cellular toxicity against HaCaT cell line; format: cell-based; conditions: HaCaT cell line; for IC50 HaCaT: ± standard error
Procedure: as §3, §4

[15] = colistin-resistant strain, median of triplicate

Row | Molecule | Score (nephrotoxicity on kidney organoids) ([12]; 100 μM) | Score (nephrotoxicity on kidney organoids) ([12]; 300 μM) | Score (nephrotoxicity on kidney organoids) ([12]; 1 mM) | MIC K. pneumoniae ATCC 33495 ([5]; median of triplicate) [µg/mL] | MIC K. pneumoniae ATCC MS6671 ([6]; median of triplicate) [µg/mL] | MIC K. pneumoniae ATCC 700603 ([7]; median of triplicate) [µg/mL] | MIC P. aeruginosa ATCC 27853 ([8]; median of triplicate) [µg/mL] | MIC E. coli ATCC 25922 ([9]; median of triplicate) [µg/mL] | MIC E. coli ATCC MS8345 [10, 15] [µg/mL] | MIC A. baumannii ATCC 19606 ([11]; median of triplicate) [µg/mL] | further results
1 | CCC(=O)OCCSC[C@@H]1NC(=O)[C@@H](Cc2ccccc2)NC(=O)[C@H](CCN)NC(=O)[C@@H](NC(=O)[C@H](CCN)NC(=O)[C@@H](NC(=O)[C@H](CCN)NC(=O)[C@@H](N)CSCCOC(=O)CC)[C@@H](C)O)CCNC(=O)[C@H]([C@@H](C)O)NC(=O)[C@H](CCN)NC(=O)[C@H](CCN)NC1=O [Compound 35] (H-C(Ethyl(2-propionyloxy))[Dab]T[Dab][Dab][Dab][dF]C(Ethyl(2-propionyloxy))[Dab][Dab]T; lactam 5-C) | – | – | – | – | – | – | – | – | – | – | MIC [1]: >32 µg/mL; MIC ([2]; E. cloacae, IMP-4): 2 µg/mL (≈ 1.47 µM); MIC ([2]; E. coli, NDM-1): 2 µg/mL (≈ 1.47 µM); MIC ([2]; K. pneumoniae, KPC-2): 4 µg/mL (≈ 2.95 µM); MIC ([2]; K. pneumoniae, NDM-5): 4 µg/mL (≈ 2.95 µM); MIC [3]: 8 µg/mL (≈ 5.9 µM); MIC [4]: >32 µg/mL; MIC K. pneumoniae ATCC 33495 ([5]; ATCC 33495): 1 to 2 µg/mL; MIC K. pneumoniae ATCC MS6671 ([6]; ATCC MS6671): >32 µg/mL; MIC K. pneumoniae ATCC 700603 ([7]; ATCC 700603): 1 µg/mL (≈ 0.737 µM); MIC P. aeruginosa ATCC 27853 ([8]; ATCC 27853): >32 µg/mL; MIC E. coli ATCC 25922 ([9]; ATCC 25922): 0.5 µg/mL (≈ 0.369 µM); MIC E. coli ATCC MS8345 ([10]; ATCC MS8345): >32 µg/mL; MIC A. baumannii ATCC 19606 ([11]; ATCC 19606): 32 µg/mL (≈ 23.6 µM)
2 | CC(=O)N[C@@H](CSCCOC(=O)c1ccccc1)C(=O)N[C@@H](CCN)C(=O)N[C@H](C(=O)N[C@@H](CCN)C(=O)N[C@H]1CCNC(=O)[C@H]([C@@H](C)O)NC(=O)[C@H](CCN)NC(=O)[C@H](CCN)NC(=O)[C@H](CSCCOC(=O)c2ccccc2)NC(=O)[C@@H](Cc2ccccc2)NC(=O)[C@H](CCN)NC1=O)[C@@H](C)O [Compound 49] (Ac-C(Ethyl(2-OBz))[Dab]T[Dab][Dab][Dab][dF]C(Ethyl(2-OBz))[Dab][Dab]T; lactam 5-C) | 3 | 3 | 4 | 0.5 (≈ 0.335 µM) | >32 | 0.5 (≈ 0.335 µM) | 1 (≈ 0.669 µM) | 0.5 (≈ 0.335 µM) | 16 (≈ 10.7 µM) | 1 to 2 | –
3 | C[C@@H](O)[C@@H]1NC(=O)[C@H](CCN)NC(=O)[C@H](CCN)NC(=O)[C@H](CSCCOC(=O)c2ccccc2)NC(=O)[C@@H](Cc2ccccc2)NC(=O)[C@H](CCN)NC(=O)[C@@H](NC(=O)[C@H](CCN)NC(=O)[C@@H](NC(=O)[C@H](CCN)NC(=O)[C@@H](N)CSCCOC(=O)c2ccccc2)[C@@H](C)O)CCNC1=O [Compound 39] (H-C(Ethyl(2-OBz))[Dab]T[Dab][Dab][Dab][dF]C(Ethyl(2-OBz))[Dab][Dab]T; lactam 5-C) | 1 | 3 | 4 | 0.5 (≈ 0.344 µM) | >32 | 0.5 (≈ 0.344 µM) | 2 (≈ 1.38 µM) | 0.5 (≈ 0.344 µM) | 4 (≈ 2.75 µM) | 2 (≈ 1.38 µM) | fold more toxic compared to compound 29 [13]: ~5 fold; IC50 Vero [13]: 521.0 ± 17.05 µg/mL (≈ 359 µM); fold more toxic compared to compound 29 [14]: ~5 fold; IC50 HaCaT [14]: 657.7 ± 87.51 µg/mL (≈ 453 µM)
4 | Colistin [reference compound] | – | – | – | – | – | – | – | – | – | – | IC50 Vero [13]: 949.7 ± 75.35 µg/mL; IC50 HaCaT [14]: 2578 ± 11.41 µg/mL
5 | CCC(=O)OCCSC[C@H](N)C(=O)N[C@@H](CCN)C(=O)N[C@H](C(=O)N[C@@H](CCN)C(=O)N[C@H]1CCNC(=O)[C@H]([C@@H](C)O)NC(=O)[C@H](CCN)NC(=O)[C@H](CCN)NC(=O)[C@H](CSCCOC(=O)c2ccccc2)NC(=O)[C@@H](Cc2ccccc2)NC(=O)[C@H](CCN)NC1=O)[C@@H](C)O [Compound 44] (H-C(Ethyl(2-propionyloxy))[Dab]T[Dab][Dab][Dab][dF]C(Ethyl(2-OBz))[Dab][Dab]T; lactam 5-C) | 1 | 2 | 3 | 0.5 (≈ 0.356 µM) | >32 | 0.5 (≈ 0.356 µM) | 16 (≈ 11.4 µM) | 0.5 (≈ 0.356 µM) | 32 (≈ 22.8 µM) | 32 (≈ 22.8 µM) | –
6 | CCC(=O)OCCSC[C@@H]1NC(=O)[C@@H](Cc2ccccc2)NC(=O)[C@H](CCN)NC(=O)[C@@H](NC(=O)[C@H](CCN)NC(=O)[C@@H](NC(=O)[C@H](CCN)NC(=O)[C@@H](N)CSCCOC(=O)c2ccccc2)[C@@H](C)O)CCNC(=O)[C@H]([C@@H](C)O)NC(=O)[C@H](CCN)NC(=O)[C@H](CCN)NC1=O [Compound 47] (H-C(Ethyl(2-OBz))[Dab]T[Dab][Dab][Dab][dF]C(Ethyl(2-propionyloxy))[Dab][Dab]T; lactam 5-C) | 1 | 2 | 3 | 2 to 4 | >32 | 2 to 4 | >32 | 2 to 4 | >32 | >32 | –
7 | CCCC(C)C(=O)OCCSC[C@@H](N)C(=O)N[C@H](C(=O)N[C@@H](CCN)C(=O)N[C@H]1CCNC(=O)[C@H]([C@@H](C)O)NC(=O)[C@H](CCN)NC(=O)[C@H](CCN)NC(=O)[C@H](CC(C)C)NC(=O)[C@@H](Cc2ccccc2)NC(=O)[C@H](CCN)NC1=O)[C@@H](C)O (some centres unmarked) [Compound 94] (H-[dC](X3)T[Dab][Dab][Dab][dF]L[Dab][Dab]T; lactam 4-C) | 1 | 2 | 3 | 1 (≈ 0.827 µM) | >32 | 2 (≈ 1.65 µM) | 2 (≈ 1.65 µM) | 1 (≈ 0.827 µM) | 16 (≈ 13.2 µM) | 4 (≈ 3.31 µM) | –
8 | CC(C)C[C@@H]1NC(=O)[C@@H](Cc2ccccc2)NC(=O)[C@H](CCN)NC(=O)[C@@H](NC(=O)[C@H](CCN)NC(=O)[C@@H](NC(=O)[C@H](CCN)NC(=O)[C@@H](N)CSCCOC(=O)c2ccccc2)[C@@H](C)O)CCNC(=O)[C@H]([C@@H](C)O)NC(=O)[C@H](CCN)NC(=O)[C@H](CCN)NC1=O [Compound 33] (H-C(Ethyl(2-OBz))[Dab]T[Dab][Dab][Dab][dF]L[Dab][Dab]T; lactam 5-C) | 1 | 3 | 4 | 0.0625 (≈ 0.0475 µM) | >32 | 0.25 (≈ 0.19 µM) | 0.5 (≈ 0.38 µM) | 0.25 (≈ 0.19 µM) | 2 (≈ 1.52 µM) | 0.5 (≈ 0.38 µM) | –
